The values that follow are results of earlier work, collected in patent US20080206335A1, “[…] CONTROLLED RELEASE SELECTIVE SEROTONIN […] INHIBITOR FORMULATIONS” (priority 1999, published 2008).

For the data set the following is noted: steady state after multiple oral doses of 100 mg/day, healthy young volunteers.

Take `COCCCC/C(=N\OCCN)c1ccc(C(F)(F)F)cc1.O=C(O)/C=C\C(=O)O` [fluvoxamine, 5-methoxy-4′-(trifluoromethyl)valerophenone-(E)-O-(2-aminoethyl) oxime maleate (1:1)]: the plasma elimination half-life is 15.6 h.
